The values that follow come from patent US10112950B2, “Substituted imidazo[1,2-a]pyrazines as LSD1 inhibitors” (Incyte Corporation, priority 2014, dated 2018).

The assay has as its target LSD-1 enzyme (Homo sapiens (Human), UniProt O60341). The assay can be described thus: LANCE LSD1/KDM1A demethylase assay (LSD1 histone demethylase biochemical assay). To be noted: 1 nM LSD-1 enzyme, 1 hour preincubation at 25° C., 0.4 μM Biotin-labeled Histone H3 peptide substrate. As to the method:
LSD1 Histone Demethylase Biochemical Assay
LANCE LSD1/KDM1A demethylase assay-10 μL of 1 nM LSD-1 enzyme (ENZO BML-SE544-0050) in the assay buffer (50 mM Tris, pH 7.5, 0.01% Tween-20, 25 mM NaCl, 5 mM DTT) were preincubated for 1 hour at 25° C. with 0.8 μL compound/DMSO dotted in black 384 well polystyrene plates. […] Reactions were stopped by addition of 10 μL 1× LANCE Detection Buffer (PerkinElmer CR97-100) supplemented with 1.5 nM Eu-anti-unmodified H3K4 Antibody (PerkinElmer TRF0404), and 225 nM LANCE Ultra Streptavidin (PerkinElmer TRF102) along with 0.9 mM Tranylcypromine-HCl (Millipore 616431). After stopping the reactions plates were incubated for 30 minutes and read on a PHERAstar FS plate reader (BMG Labtech).
For orientation: Time-resolved FRET reads energy transfer from a long-lived donor to a nearby acceptor.
For orientation: IC50 means the midpoint of a concentration-inhibition curve. Higher therefore signals lower potency. As for `Cc1ccc(-c2c(-c3ccc(C#N)cc3)nc(OC[C@@H]3CCN(C)C3)c3nccn23)cc1` [Example 11, 4-(5-(4-methylphenyl)-8-{[(3R)-1-methylpyrrolidin-3-yl]methoxy}imidazo[1,2-a]pyrazin-6-yl)benzonitrile], the IC50 was no more than 50 nM. On to `CN1CCC[C@@H](COc2nc(-c3ccc(C#N)cc3)c(-c3ccc(N(C)CC4CCCO4)nc3)n3ccnc23)C1` (stereo partly drawn) [Example 52, 4-(8-{[(3R)-1-methylpiperidin-3-yl]methoxy}-5-{6-[methyl(tetrahydrofuran-2-ylmethyl)amino]pyridin-3-yl}imidazo[1,2-a]pyrazin-6-yl)benzonitrile], for which the IC50 was no more than 50 nM. Regarding `Cc1ccc(-c2c(-c3ccc(C#N)cc3)nc(N3CCC(N(C)C)CC3)c3nccn23)cc1` [Example 14, 4-[8-[4-(dimethylamino)piperidin-1-yl]-5-(4-methylphenyl)imidazo[1,2-a]pyrazin-6-yl]benzonitrile], the IC50 is no more than 50 nM. Compound `CN(C)C1CCN(c2nc(-c3ccc(C#N)cc3)c(-c3ccc4c(c3)oc(=O)n4C)n3ccnc23)CC1` [Example 59, 4-[8-[4-(dimethylamino)piperidin-1-yl]-5-(3-methyl-2-oxo-2,3-dihydro-1,3-benzoxazol-6-yl)imidazo[1,2-a]pyrazin-6-yl]benzonitrile] yielded an IC50 of no more than 50 nM. As to `Cc1ccc(-c2c(-c3ccc(C#N)cc3)nc(OC[C@@H]3CCCN(C)C3)c3nccn23)cc1C#N` [Example 69, 5-(6-(4-cyanophenyl)-8-{[(3R)-1-methylpiperidin-3-yl]methoxy}imidazo[1,2-a]pyrazin-5-yl)-2-methylbenzonitrile], the concentration for half-maximal inhibition (IC50) is no more than 50 nM. Compound `Cc1ccc(-c2c(-c3ccc(C#N)cc3)nc(OC[C@@H]3CCNC3)c3nc(CN(C)C)cn23)cc1` [Example 42, 4-{2-[(dimethylamino)methyl]-5-(4-methylphenyl)-8-[(3R)-pyrrolidin-3-ylmethoxy]imidazol[1,2-a]pyrazin-6-yl}benzonitrile] had a half-maximal inhibitory concentration (IC50) of no more than 50 nM.

Consider `CN(C)C1CCN(c2nc(-c3ccc(C#N)cc3)c(-c3cnc4c(ccn4C)c3)n3ccnc23)CC1` [Example 112, 4-[8-[4-(dimethylamino)piperidin-1-yl]-5-(1-methyl-1H-pyrrolo[2,3-b]pyridin-5-yl)imidazo[1,2-a]pyrazin-6-yl]benzonitrile], for which the IC50 is no more than 50 nM.

Take `CN(C)C1CCN(c2nc(-c3ccc(C#N)cc3)c(-c3cnc4c(c3)cc(CO)n4C)n3ccnc23)CC1` [Example 103, 4-{8-[4-(dimethylamino)piperidin-1-yl]-5-[2-(hydroxymethyl)-1-methyl-1H-pyrrolo[2,3-b]pyridin-5-yl]imidazo[1,2-a]pyrazin-6-yl}benzonitrile]: the IC50 is no more than 50 nM. To `COC(=O)N(C)Cc1ccc(-c2c(-c3ccc(C#N)cc3)nc(OC[C@@H]3CCCN(C)C3)c3nccn23)cc1F` [Example 85, methyl [4-(6-(4-cyanophenyl)-8-{[(3R)-1-methylpiperidin-3-yl]methoxy}imidazo[1,2-a]pyrazin-5-yl)-2-fluorobenzyl]methylcarbamate] belongs no more than 50 nM; to `CN(C)C1CCN(c2nc(-c3ccc(C#N)cc3)c(-c3ccc4nccnc4c3)n3ccnc23)CC1` [Example 101, 4-{8-[4-(dimethylamino)piperidin-1-yl]-5-quinoxalin-6-ylimidazo[1,2-a]pyrazin-6-yl}benzonitrile], no more than 50 nM. Take `CCn1c(=O)oc2cc(-c3c(-c4ccc(C#N)cc4)nc(N4CCC(N(C)C)CC4)c4nccn34)cnc21` [Example 105, 4-[8-[4-(dimethylamino)piperidin-1-yl]-5-(3-ethyl-2-oxo-2,3-dihydro[1,3]oxazolo[4,5-b]pyridin-6-yl)imidazo[1,2-a]pyrazin-6-yl]benzonitrile]: the half-inhibitory concentration (IC50) is no more than 50 nM. As for `Cc1ccc(-c2c(-c3ccc(C#N)cc3)nc(SC[C@@H]3CCNC3)c3nccn23)cc1` [Example 13, 4-(5-(4-methylphenyl)-8-{[(3R)-pyrrolidin-3-ylmethyl]thio}imidazo[1,2-a]pyrazin-6-yl)benzonitrile], the figure is no more than 50 nM; as for `CN1C(=O)Cc2cc(-c3c(-c4ccc(C#N)cc4)nc(N4CCC(N(C)C)CC4)c4nccn34)ccc21` [Example 98, 4-[8-[4-(dimethylamino)piperidin-1-yl]-5-(1-methyl-2-oxo-2,3-dihydro-1H-indol-5-yl)imidazo[1,2-a]pyrazin-6-yl]benzonitrile], no more than 50 nM. As for `Cc1ccc(-c2c(-c3ccc(C#N)cc3)nc(CN3CC[C@H](N(C)C)C3)c3nccn23)cc1` [Example 4, 4-[8-{[(3S)-3-(dimethylamino)pyrrolidin-1-yl]methyl}-5-(4-methylphenyl)imidazo[1,2-a]pyrazin-6-yl]benzonitrile], the IC50 was no more than 50 nM. For `CN1CCC[C@@H](COc2nc(-c3ccc(C#N)cc3)c(-c3cc(F)c4c(c3)C(O)CC4)n3ccnc23)C1` (stereo partly drawn) [Example 79, 4-(5-(7-fluoro-3-hydroxy-2,3-dihydro-1H-inden-5-yl)-8-{[(3R)-1-methylpiperidin-3-yl]methoxy}imidazo[1,2-a]pyrazin-6-yl)benzonitrile], the IC50 is no more than 50 nM. `COc1ncc(-c2c(-c3ccc(C#N)cc3)nc(OC[C@@H]3CCCN(C)C3)c3nccn23)cc1O` [Example 119, 4-(5-(5-hydroxy-6-methoxypyridin-3-yl)-8-{[(3R)-1-methylpiperidin-3-yl]methoxy}imidazo[1,2-a]pyrazin-6-yl)benzonitrile] displayed a 50% inhibitory concentration (IC50) of no more than 50 nM. As to `CN1CCN(c2ccc(-c3c(-c4ccc(C#N)cc4)nc(N4CCC(N(C)C)CC4)c4nccn34)cn2)CC1=O` [Example 109, 4-{8-[4-(dimethylamino)piperidin-1-yl]-5-[6-(4-methyl-3-oxopiperazin-1-yl)pyridin-3-yl]imidazo[1,2-a]pyrazin-6-yl}benzonitrile], the half-maximal inhibitory concentration (IC50) was no more than 50 nM. To `CN1C(=O)Cc2cc(-c3c(-c4ccc(C#N)cc4)nc(N4CCC(N(C)C)CC4)c4nccn34)cnc21` [Example 111, 4-[8-[4-(dimethylamino)piperidin-1-yl]-5-(1-methyl-2-oxo-2,3-dihydro-1H-pyrrolo[2,3-b]pyridin-5-yl)imidazo[1,2-a]pyrazin-6-yl]benzonitrile] belongs no more than 50 nM; to `Cc1ccc(-c2c(-c3ccc(C#N)cc3)nc(OC[C@@H]3CCNC3)c3nc(C)cn23)cc1` [Example 33, 4-{2-methyl-5-(4-methylphenyl)-8-[(3R)-pyrrolidin-3-ylmethoxy]imidazo[1,2-a]pyrazin-6-yl}benzonitrile], no more than 50 nM; to `Cc1ccc(-c2c(-c3ccc(C#N)cc3)nc(OC[C@@H]3CCNC3)c3nc(CO)cn23)cc1` [Example 41, 4-{2-(hydroxymethyl)-5-(4-methylphenyl)-8-[(3R)-pyrrolidin-3-ylmethoxy]imidazol[1,2-a]pyrazin-6-yl}benzonitrile], no more than 50 nM. As for `Cc1ccc(-c2c(-c3ccc(C#N)cc3)nc(CCC3CCNC3)c3nccn23)cc1` (stereo not shown) [Example 2, 4-[5-(4-methylphenyl)-8-(2-pyrrolidin-3-ylethyl)imidazo[1,2-a]pyrazin-6-yl]benzonitrile], the figure is no more than 50 nM. For the compound `Cc1ccc(-c2c(-c3ccc(C#N)cc3)nc(OC[C@@H]3CCCN(C)C3)c3nccn23)cc1CC#N` [Example 91, 4-(5-[3-(cyanomethyl)-4-methylphenyl]-8-{[(3R)-1-methylpiperidin-3-yl]methoxy}imidazo[1,2-a]pyrazin-6-yl)benzonitrile], the IC50 was no more than 50 nM. For the compound `Cc1ccc(-c2c(-c3ccc(C#N)cc3)nc(OC[C@@H]3CCNC3)c3nc(CNCC4CC4)cn23)cc1` [Example 44, 4-{2-{[(cyclopropylmethyl)amino]methyl}-5-(4-methylphenyl)-8-[(3R)-pyrrolidin-3-ylmethoxy]imidazo[1,2-a]pyrazin-6-yl}benzonitrile], the IC50 was no more than 50 nM. As to `CN(C)C1CCN(c2nc(-c3ccc(C#N)cc3)c(-c3ccc4c(c3)ncn4C)n3ccnc23)CC1` [Example 106, 4-[8-[4-(dimethylamino)piperidin-1-yl]-5-(1-methyl-1H-benzimidazol-5-yl)imidazo[1,2-a]pyrazin-6-yl]benzonitrile], the IC50 was no more than 50 nM. As for `Cc1ncc(-c2c(-c3ccc(C#N)cc3)nc(N3CCC(N(C)C)CC3)c3nccn23)cc1O` [Example 94, 4-[8-[4-(dimethylamino)piperidin-1-yl]-5-(5-hydroxy-6-methylpyridin-3-yl)imidazo[1,2-a]pyrazin-6-yl]benzonitrile], the figure is no more than 50 nM.
